Measured values taken from the kinase profiling compilation of Christmann-Franck et al. (2016).
“And” between values parts separate entries of the source, which are not always exact repeats. Equal values may be shown once.

How the values were obtained:
Assay in all cases: KINOMEscan competition binding
Conditions in all cases: compound 10.0 µM
BMPR1A (human) = BMPR1A (human) (UniProt P36894)
NIM1 (human) = NIM1 (human) (UniProt Q8IY84)
EIF2AK2 (human) = EIF2AK2 (human) (UniProt P19525)
BUB1 (human) = BUB1 (human) (UniProt O43683)
MYLK2 (human) = MYLK2 (human) (UniProt Q9H1R3)
OXSR1 (human) = OXSR1 (human) (UniProt O95747)
WEE1 (human) = WEE1 (human) (UniProt P30291)
MAP4K3 (human) = MAP4K3 (human) (UniProt Q8IVH8)
BTK (human) = BTK (human) (UniProt Q06187)
WNK3 (human) = WNK3 (human) (UniProt Q9BYP7)
HIPK2 (human) = HIPK2 (human) (UniProt Q9H2X6)
CSNK1G3 (human) = CSNK1G3 (human) (UniProt Q9Y6M4)
NEK5 (human) = NEK5 (human) (UniProt Q6P3R8)
MAPK15 (human) = MAPK15 (human) (UniProt Q8TD08)
TGFBR1 (human) = TGFBR1 (human) (UniProt P36897)
TXK (human) = TXK (human) (UniProt P42681)
ABL1 (human) = ABL1 (human) (UniProt P00519)
[1] = test system: EGFR (human), P00533 [747-751 del / S ins]
CDK19 (human) = CDK19 (human) (UniProt Q9BWU1)
[2] = test system: ABL1 (human), P00519 [H396P]
CAMK4 (human) = CAMK4 (human) (UniProt Q16566)
ANKK1 (human) = ANKK1 (human) (UniProt Q8NFD2)
CaMK1 (human) = CaMK1 (human) (UniProt Q14012)
MYLK3 (human) = MYLK3 (human) (UniProt Q32MK0)
PRKAA1 (human) = PRKAA1 (human) (UniProt Q13131)
KDR (human) = KDR (human) (UniProt P35968)
ERN1 (human) = ERN1 (human) (UniProt O75460)
PIP4K2B (human) = PIP4K2B (human) (UniProt P78356)
PDGFRA (human) = PDGFRA (human) (UniProt P16234)
FLT3 (human) = FLT3 (human) (UniProt P36888)
MAPK4 (human) = MAPK4 (human) (UniProt P31152)
RPS6KA2 KD1 (human) = RPS6KA2 KD1 (human) (UniProt Q15349)
EPHB4 (human) = EPHB4 (human) (UniProt P54760)
CDK4 CCND1 (human) = CDK4 CCND1 (human) (UniProt P11802+P24385)
NEK2 (human) = NEK2 (human) (UniProt P51955)
MYLK4 (human) = MYLK4 (human) (UniProt Q86YV6)
GSG2 (human) = GSG2 (human) (UniProt Q8TF76)
RPS6KA2 KD2 (human) = RPS6KA2 KD2 (human) (UniProt Q15349)
GSK3B (human) = GSK3B (human) (UniProt P49841)
[3] = test system: EGFR (human), P00533 [T790M]

Sequence of FLT3 (human) (P36888 whole entry, looked up): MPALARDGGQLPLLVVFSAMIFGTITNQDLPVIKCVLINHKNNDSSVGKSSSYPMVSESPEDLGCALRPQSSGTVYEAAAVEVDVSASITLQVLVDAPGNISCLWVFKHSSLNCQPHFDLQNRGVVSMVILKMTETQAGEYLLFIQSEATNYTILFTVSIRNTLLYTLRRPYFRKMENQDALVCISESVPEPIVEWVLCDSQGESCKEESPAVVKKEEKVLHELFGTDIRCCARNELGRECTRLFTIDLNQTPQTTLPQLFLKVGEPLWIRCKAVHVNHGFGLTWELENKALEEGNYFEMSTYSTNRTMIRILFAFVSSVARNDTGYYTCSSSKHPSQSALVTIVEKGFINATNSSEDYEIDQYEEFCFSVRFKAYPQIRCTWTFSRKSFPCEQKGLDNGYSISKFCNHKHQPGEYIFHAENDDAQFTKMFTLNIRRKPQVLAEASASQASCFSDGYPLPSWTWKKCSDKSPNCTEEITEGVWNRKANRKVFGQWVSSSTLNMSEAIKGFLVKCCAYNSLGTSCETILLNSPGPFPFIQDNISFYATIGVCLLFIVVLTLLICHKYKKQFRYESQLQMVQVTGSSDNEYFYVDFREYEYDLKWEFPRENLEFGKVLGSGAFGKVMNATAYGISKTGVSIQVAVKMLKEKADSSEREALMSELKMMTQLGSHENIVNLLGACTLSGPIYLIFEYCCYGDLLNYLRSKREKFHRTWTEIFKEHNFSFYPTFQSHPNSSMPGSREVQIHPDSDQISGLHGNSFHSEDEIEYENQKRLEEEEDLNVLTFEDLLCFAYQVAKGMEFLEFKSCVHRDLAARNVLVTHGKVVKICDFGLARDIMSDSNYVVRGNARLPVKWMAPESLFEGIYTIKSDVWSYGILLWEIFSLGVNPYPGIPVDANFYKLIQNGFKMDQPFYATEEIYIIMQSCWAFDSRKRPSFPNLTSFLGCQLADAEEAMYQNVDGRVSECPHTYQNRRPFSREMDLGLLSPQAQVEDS
Sequence of NIM1 (human) (Q8IY84 whole entry, looked up): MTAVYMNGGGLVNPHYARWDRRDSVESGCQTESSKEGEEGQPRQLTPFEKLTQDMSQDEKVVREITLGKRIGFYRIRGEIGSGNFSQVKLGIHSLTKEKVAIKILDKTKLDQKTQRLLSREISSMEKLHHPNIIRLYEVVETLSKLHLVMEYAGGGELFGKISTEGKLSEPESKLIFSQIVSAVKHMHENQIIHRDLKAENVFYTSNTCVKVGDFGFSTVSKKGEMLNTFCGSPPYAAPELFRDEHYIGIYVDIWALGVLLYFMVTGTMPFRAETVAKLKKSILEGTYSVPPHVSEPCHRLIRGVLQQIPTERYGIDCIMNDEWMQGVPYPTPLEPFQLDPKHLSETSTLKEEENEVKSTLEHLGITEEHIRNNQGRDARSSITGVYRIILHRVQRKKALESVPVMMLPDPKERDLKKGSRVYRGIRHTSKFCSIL
Sequence of PRKAA1 (human) (Q13131 whole entry, looked up): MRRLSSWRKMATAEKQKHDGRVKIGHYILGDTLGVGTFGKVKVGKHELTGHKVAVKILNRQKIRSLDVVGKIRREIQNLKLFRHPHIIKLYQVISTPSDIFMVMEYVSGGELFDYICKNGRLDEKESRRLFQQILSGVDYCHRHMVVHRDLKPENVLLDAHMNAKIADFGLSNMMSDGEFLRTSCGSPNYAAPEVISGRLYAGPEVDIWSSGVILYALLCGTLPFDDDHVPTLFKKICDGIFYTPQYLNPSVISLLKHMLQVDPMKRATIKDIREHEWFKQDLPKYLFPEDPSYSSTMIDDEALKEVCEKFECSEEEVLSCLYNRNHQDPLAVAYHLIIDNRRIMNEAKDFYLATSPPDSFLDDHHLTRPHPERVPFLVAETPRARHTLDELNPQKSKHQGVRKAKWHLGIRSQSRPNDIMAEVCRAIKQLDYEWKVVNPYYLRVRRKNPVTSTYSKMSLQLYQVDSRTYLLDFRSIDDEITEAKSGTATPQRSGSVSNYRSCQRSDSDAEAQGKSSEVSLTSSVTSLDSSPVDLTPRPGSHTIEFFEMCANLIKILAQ
Sequence of MYLK2 (human) (Q9H1R3 whole entry, looked up): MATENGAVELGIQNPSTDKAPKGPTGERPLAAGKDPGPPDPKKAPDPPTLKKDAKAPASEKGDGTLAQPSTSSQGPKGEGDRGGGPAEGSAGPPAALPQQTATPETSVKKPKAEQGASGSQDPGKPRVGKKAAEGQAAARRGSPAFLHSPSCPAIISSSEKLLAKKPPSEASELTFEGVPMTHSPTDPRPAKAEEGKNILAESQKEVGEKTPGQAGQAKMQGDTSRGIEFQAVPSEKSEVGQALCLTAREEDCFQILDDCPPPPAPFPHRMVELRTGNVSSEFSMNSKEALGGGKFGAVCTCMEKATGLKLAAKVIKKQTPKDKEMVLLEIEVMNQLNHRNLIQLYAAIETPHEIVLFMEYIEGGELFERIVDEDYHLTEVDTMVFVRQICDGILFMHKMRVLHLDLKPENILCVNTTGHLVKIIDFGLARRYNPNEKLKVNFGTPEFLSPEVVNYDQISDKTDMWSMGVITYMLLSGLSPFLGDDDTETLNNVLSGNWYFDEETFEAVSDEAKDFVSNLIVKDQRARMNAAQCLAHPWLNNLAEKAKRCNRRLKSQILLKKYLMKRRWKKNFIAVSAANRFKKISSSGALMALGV
Sequence of MAPK15 (human) (Q8TD08 whole entry, looked up): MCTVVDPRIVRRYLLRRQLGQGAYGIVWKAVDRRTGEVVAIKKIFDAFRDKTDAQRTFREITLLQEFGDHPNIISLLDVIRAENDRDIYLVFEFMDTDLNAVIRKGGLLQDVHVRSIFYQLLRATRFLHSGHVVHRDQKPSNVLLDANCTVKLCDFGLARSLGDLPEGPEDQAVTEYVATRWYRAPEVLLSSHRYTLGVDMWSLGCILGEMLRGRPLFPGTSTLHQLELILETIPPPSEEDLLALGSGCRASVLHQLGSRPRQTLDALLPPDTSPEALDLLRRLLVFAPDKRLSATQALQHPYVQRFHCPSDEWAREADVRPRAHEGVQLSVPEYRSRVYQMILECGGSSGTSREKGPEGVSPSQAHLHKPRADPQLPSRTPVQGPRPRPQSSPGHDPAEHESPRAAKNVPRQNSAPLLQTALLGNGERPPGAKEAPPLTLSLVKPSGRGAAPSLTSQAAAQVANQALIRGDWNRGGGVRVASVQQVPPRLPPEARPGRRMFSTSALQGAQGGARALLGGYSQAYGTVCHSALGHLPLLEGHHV
Sequence of BUB1 (human) (O43683 whole entry, looked up): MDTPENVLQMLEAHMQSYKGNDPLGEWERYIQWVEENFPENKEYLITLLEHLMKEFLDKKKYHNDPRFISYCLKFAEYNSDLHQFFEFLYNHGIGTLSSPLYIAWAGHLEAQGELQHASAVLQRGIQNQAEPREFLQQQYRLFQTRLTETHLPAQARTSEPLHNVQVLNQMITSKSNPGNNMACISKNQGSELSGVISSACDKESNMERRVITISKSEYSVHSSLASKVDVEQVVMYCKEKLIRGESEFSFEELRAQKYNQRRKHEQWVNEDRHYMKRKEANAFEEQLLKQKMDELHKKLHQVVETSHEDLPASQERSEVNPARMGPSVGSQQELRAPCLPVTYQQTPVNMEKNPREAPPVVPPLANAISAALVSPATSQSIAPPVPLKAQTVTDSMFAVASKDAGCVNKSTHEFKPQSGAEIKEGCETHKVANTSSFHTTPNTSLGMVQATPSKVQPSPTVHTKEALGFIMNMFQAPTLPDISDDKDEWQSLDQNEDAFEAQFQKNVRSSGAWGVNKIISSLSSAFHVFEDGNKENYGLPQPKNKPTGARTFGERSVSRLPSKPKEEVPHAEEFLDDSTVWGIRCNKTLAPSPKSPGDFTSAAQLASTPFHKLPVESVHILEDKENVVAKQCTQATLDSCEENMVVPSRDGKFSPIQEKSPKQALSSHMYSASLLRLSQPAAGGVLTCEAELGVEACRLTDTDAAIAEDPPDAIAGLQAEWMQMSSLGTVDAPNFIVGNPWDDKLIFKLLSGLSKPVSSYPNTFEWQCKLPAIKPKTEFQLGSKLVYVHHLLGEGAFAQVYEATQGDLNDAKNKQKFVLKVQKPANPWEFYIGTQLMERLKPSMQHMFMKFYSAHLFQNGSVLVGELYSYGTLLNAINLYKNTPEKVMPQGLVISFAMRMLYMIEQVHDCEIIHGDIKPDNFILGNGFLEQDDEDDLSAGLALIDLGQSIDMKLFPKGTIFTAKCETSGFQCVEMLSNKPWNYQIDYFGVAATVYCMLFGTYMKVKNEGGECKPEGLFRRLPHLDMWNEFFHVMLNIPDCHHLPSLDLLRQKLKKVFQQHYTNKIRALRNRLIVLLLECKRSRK
Sequence of WEE1 (human) (P30291 whole entry, looked up): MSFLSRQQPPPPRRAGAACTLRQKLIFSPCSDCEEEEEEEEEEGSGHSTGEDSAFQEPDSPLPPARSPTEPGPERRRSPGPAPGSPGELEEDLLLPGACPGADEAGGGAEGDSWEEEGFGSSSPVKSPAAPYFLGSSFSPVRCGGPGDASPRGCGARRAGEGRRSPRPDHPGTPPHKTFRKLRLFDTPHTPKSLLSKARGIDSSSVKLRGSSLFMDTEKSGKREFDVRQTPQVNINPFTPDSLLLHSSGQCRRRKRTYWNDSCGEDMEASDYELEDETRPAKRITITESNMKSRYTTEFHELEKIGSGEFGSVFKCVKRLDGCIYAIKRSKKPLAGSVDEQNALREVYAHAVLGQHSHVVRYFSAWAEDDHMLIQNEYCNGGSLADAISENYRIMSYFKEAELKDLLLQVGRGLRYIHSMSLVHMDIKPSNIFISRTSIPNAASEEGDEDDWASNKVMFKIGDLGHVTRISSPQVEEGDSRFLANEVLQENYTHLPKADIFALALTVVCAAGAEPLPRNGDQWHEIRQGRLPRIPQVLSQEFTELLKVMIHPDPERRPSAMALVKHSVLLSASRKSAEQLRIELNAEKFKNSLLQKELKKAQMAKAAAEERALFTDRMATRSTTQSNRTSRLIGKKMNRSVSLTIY

| Compound | kinase still bound, per cent of control (BMPR1A (human)) | kinase still bound, per cent of control (NIM1 (human)) | kinase still bound, per cent of control (EIF2AK2 (human)) | kinase still bound, per cent of control (BUB1 (human)) | kinase still bound, per cent of control (MYLK2 (human)) | kinase still bound, per cent of control (OXSR1 (human)) | kinase still bound, per cent of control (WEE1 (human)) | kinase still bound, per cent of control (MAP4K3 (human)) | kinase still bound, per cent of control (BTK (human)) | kinase still bound, per cent of control (WNK3 (human)) | kinase still bound, per cent of control (HIPK2 (human)) | kinase still bound, per cent of control (CSNK1G3 (human)) | kinase still bound, per cent of control (NEK5 (human)) | kinase still bound, per cent of control (MAPK15 (human)) | kinase still bound, per cent of control (TGFBR1 (human)) | kinase still bound, per cent of control (TXK (human)) | kinase still bound, per cent of control [1] | kinase still bound, per cent of control (CDK19 (human)) | kinase still bound, per cent of control (CAMK4 (human)) | kinase still bound, per cent of control (ANKK1 (human)) | further results |
| --- | --- | --- | --- | --- | --- | --- | --- | --- | --- | --- | --- | --- | --- | --- | --- | --- | --- | --- | --- | --- | --- |
| N#CCNC(=O)c1ccc(-c2ccnc(Nc3ccc(N4CCOCC4)cc3)n2)cc1 | 3.6% | 100% | 47% | 3.5% | 23% | 58% | 100% | 57% | 75% | 90% | 15% | 100% | 2.4% | 0.25% | 76% | 100% | 70% | 100% | 100% | 100% | kinase still bound, per cent of control (ABL1 (human)): 54%; kinase still bound, per cent of control [2]: 65%; kinase still bound, per cent of control (CaMK1 (human)): 59%; kinase still bound, per cent of control (MYLK3 (human)): 68%; kinase still bound, per cent of control (PRKAA1 (human)): 42%; kinase still bound, per cent of control (KDR (human)): 99%; kinase still bound, per cent of control (ERN1 (human)): 100%; kinase still bound, per cent of control (PIP4K2B (human)): 89%; kinase still bound, per cent of control (PDGFRA (human)): 100%; kinase still bound, per cent of control (FLT3 (human)): 100%; kinase still bound, per cent of control (MAPK4 (human)): 93%; kinase still bound, per cent of control (RPS6KA2 KD1 (human)): 100%; kinase still bound, per cent of control (EPHB4 (human)): 100%; kinase still bound, per cent of control (CDK4 CCND1 (human)): 13%; kinase still bound, per cent of control (NEK2 (human)): 77%; kinase still bound, per cent of control (MYLK4 (human)): 0%; kinase still bound, per cent of control (GSG2 (human)): 67%; kinase still bound, per cent of control (RPS6KA2 KD2 (human)): 71% |
| O=C1NC(=O)/C(=C/c2ccc3nccc(-c4ccncc4)c3c2)S1 | 2% | 71% | 20% | 12% | 46% | 87% | 100% | 67% | 58% | 86% | 0.15% | 2.4% | 100% | 0.05% | 20% | 79% | 84% | 4.2% | 100% | 47% | kinase still bound, per cent of control (GSK3B (human)): 66%; kinase still bound, per cent of control (CaMK1 (human)): 65%; kinase still bound, per cent of control (MYLK3 (human)): 6.2%; kinase still bound, per cent of control (PRKAA1 (human)): 88%; kinase still bound, per cent of control (KDR (human)): 81%; kinase still bound, per cent of control (ERN1 (human)): 66%; kinase still bound, per cent of control (PIP4K2B (human)): 4%; kinase still bound, per cent of control (PDGFRA (human)): 67%; kinase still bound, per cent of control (FLT3 (human)): 39% and 61%; kinase still bound, per cent of control (MAPK4 (human)): 100%; kinase still bound, per cent of control (RPS6KA2 KD1 (human)): 100%; kinase still bound, per cent of control [3]: 76%; kinase still bound, per cent of control (EPHB4 (human)): 74%; kinase still bound, per cent of control (CDK4 CCND1 (human)): 92%; kinase still bound, per cent of control (NEK2 (human)): 64%; kinase still bound, per cent of control (MYLK4 (human)): 2.2%; kinase still bound, per cent of control (GSG2 (human)): 6.2%; kinase still bound, per cent of control (RPS6KA2 KD2 (human)): 12% |
